Results taken from patent US20140030712A1, “GENOMIC APPROACH TO THE IDENTIFICATION OF BIOMARKERS FOR ANTIBIOTIC RESISTANCE AND SUSCEPTIBILITY IN CLINICAL ISOLATES OF BACTERIAL PATHOGENS” (priority 2011, published 2014).
In brackets after ≈: the same amount, converted by molar mass. Where two headings read alike, the source gives them in different places.

What was measured:
[1] = system: E. coli clinical isolates; assay: microbe, parasite or virus in culture; type: cell-based; details: Escherichia coli
Procedure: Clinical isolate collection and antibiotic resistance determination. […] Hospital-derived qualitative antibiotic susceptibility status denoted each isolate as susceptible (S), intermediate resistant (I), or resistance (R) to the drugs listed in Table 1. Quantitative MICs for the fluoroquinolones ciprofloxacin (CIP), gatifloxacin (GAT), levofloxacin (LVX), and norfloxacin (NOR) were determined in our laboratory as described (LBB).

[2] = system: E. coli BW25113 K-12 strain; details: deletion of any of three cryptic prophages (rac, e14, CP4-6); cited from earlier work
[3] = pool H01, n=2 isolates, MDR ≧5, read-out: Fluoroquinolone MIC
[4] = pool H02, n=5 isolates, MDR ≧3, read-out: Fluoroquinolone MIC
[5] = pool H03, n=5 isolates, MDR ≧3, read-out: Fluoroquinolone MIC
[6] = pool M01, n=10 isolates, MDR ≧3, read-out: Fluoroquinolone MIC
[7] = pool M02, n=10 isolates, MDR ≧5, read-out: Fluoroquinolone MIC
[8] = pool M03, n=13 isolates, no MDR, read-out: Fluoroquinolone MIC
[9] = pool M04, n=23 isolates, no MDR, read-out: Fluoroquinolone MIC
[10] = pool M05, n=16 isolates, MDR ≧5, read-out: Fluoroquinolone MIC
[11] = pool M06, n=13 isolates, MDR ≧3, read-out: Fluoroquinolone MIC
[12] = pool M07, n=33 isolates, MDR ≧3, read-out: Fluoroquinolone MIC
[13] = pool M08, n=3 isolates, No MDR, read-out: Fluoroquinolone MIC
[14] = pool M09, n=3 isolates, MDR ≧3, read-out: Fluoroquinolone MIC
[15] = pool M10, n=5 isolates, MDR ≧5, read-out: Fluoroquinolone MIC
[16] = pool M11, n=5 isolates, MDR ≧3, read-out: Fluoroquinolone MIC
[17] = pool S01, n=9 isolates, no MDR, read-out: Fluoroquinolone MIC
[18] = pool S02, n=9 isolates, no MDR, read-out: Fluoroquinolone MIC

Row | SMILES | MIC [1, 3] | MIC [1, 4] | MIC [1, 5] | MIC [1, 6] | MIC [1, 7] | MIC [1, 8] | MIC [1, 9] | MIC [1, 10] | MIC [1, 11] | MIC [1, 12] | MIC [1, 13] | MIC [1, 14] | MIC [1, 15] | MIC [1, 16] | MIC [1, 17] | MIC [1, 18] | nalidixic acid MICs [2] | MIC ([1]; pools denoted "H", read-out: norfloxacin MICs)
1 | COc1c(N2CCNC(C)C2)c(F)cc2c(=O)c(C(=O)O)cn(C3CC3)c12 (centres unmarked) [GAT, gatifloxacin] | 10 to 30 µg/mL (≈ 26.6 to 79.9 µM) | 10 to 30 µg/mL (≈ 26.6 to 79.9 µM) | 50 to 200 µg/mL (≈ 133 to 533 µM) | 10 to 30 µg/mL (≈ 26.6 to 79.9 µM) | 10 to 30 µg/mL (≈ 26.6 to 79.9 µM) | 8 to 30 µg/mL (≈ 21.3 to 79.9 µM) | 30 to 100 µg/mL (≈ 79.9 to 266 µM) | 10 to 20 µg/mL (≈ 26.6 to 53.3 µM) | 10 to 20 µg/mL (≈ 26.6 to 53.3 µM) | 10 µg/mL (≈ 26.6 µM) | 100 to 300 µg/mL (≈ 266 to 799 µM) | 20 µg/mL (≈ 53.3 µM) | 20 to 100 µg/mL (≈ 53.3 to 266 µM) | 10 to 50 µg/mL (≈ 26.6 to 133 µM) | 0.01 to 0.02 µg/mL (≈ 0.0266 to 0.0533 µM) | 0.01 to 0.09 µg/mL (≈ 0.0266 to 0.24 µM) |  | 
2 | CCn1cc(C(=O)O)c(=O)c2ccc(C)nc21 [nalidixic acid] |  |  |  |  |  |  |  |  |  |  |  |  |  |  |  |  | lowered | 
3 | C[C@H]1COc2c(N3CCN(C)CC3)c(F)cc3c(=O)c(C(=O)O)cn1c23 [LVX, levofloxacin] | 10 to 200 µg/mL (≈ 27.7 to 553 µM) | 40 to 50 µg/mL (≈ 111 to 138 µM) | 100 µg/mL (≈ 277 µM) | 20 to 50 µg/mL (≈ 55.3 to 138 µM) | 20 to 50 µg/mL (≈ 55.3 to 138 µM) | 8 to 30 µg/mL (≈ 22.1 to 83 µM) | 50 to 100 µg/mL (≈ 138 to 277 µM) | 30 to 50 µg/mL (≈ 83 to 138 µM) | 30 to 100 µg/mL (≈ 83 to 277 µM) | 10 to 20 µg/mL (≈ 27.7 to 55.3 µM) | 50 to 200 µg/mL (≈ 138 to 553 µM) | 10 to 20 µg/mL (≈ 27.7 to 55.3 µM) | 30 to 100 µg/mL (≈ 83 to 277 µM) | 20 to 50 µg/mL (≈ 55.3 to 138 µM) | 0.02 to 0.07 µg/mL (≈ 0.0553 to 0.194 µM) | 0.03 to 0.17 µg/mL (≈ 0.083 to 0.47 µM) |  | 
4 | CCn1cc(C(=O)O)c(=O)c2cc(F)c(N3CCNCC3)cc21 [NOR, norfloxacin] | 1000 µg/mL (≈ 3130 µM) | 400 to 1000 µg/mL (≈ 1250 to 3130 µM) | 400 to 1000 µg/mL (≈ 1250 to 3130 µM) | 200 to 700 µg/mL (≈ 626 to 2190 µM) | 200 to 700 µg/mL (≈ 626 to 2190 µM) | 50 to 200 µg/mL (≈ 157 to 626 µM) | 200 to 700 µg/mL (≈ 626 to 2190 µM) | 50 to 300 µg/mL (≈ 157 to 939 µM) | 200 to 400 µg/mL (≈ 626 to 1250 µM) | 50 to 200 µg/mL (≈ 157 to 626 µM) | 100 to 200 µg/mL (≈ 313 to 626 µM) | 100 to 200 µg/mL (≈ 313 to 626 µM) | 50 to 500 µg/mL (≈ 157 to 1570 µM) | 50 to 200 µg/mL (≈ 157 to 626 µM) | 0.03 to 0.09 µg/mL (≈ 0.0939 to 0.282 µM) | 0.04 to 0.34 µg/mL (≈ 0.125 to 1.06 µM) |  | > 1000 µg/mL
